Test results as given in US7375107B2 (priority 2003, dated 2008).

How the values were obtained:
[1] = biological target: T1, epithelial sodium channels (ENaC), airway epithelial monolayers (Canis lupus familiaris, UniProt A0A8I3MKE6+A0A8I3Q679+Q95165); experiment: Sodium channel blocking activity: lumenal drug inhibition of airway epithelial sodium currents (short circuit current, ISC) in Ussing chambers; type: cell-based, canine; details: for Fold Amiloride** (PSA 4022 = 100): relative potency for PSA 4022 = 100 using EC50 from PSA 4022 in same run
T1 sequence (A0A8I3Q679 1-649): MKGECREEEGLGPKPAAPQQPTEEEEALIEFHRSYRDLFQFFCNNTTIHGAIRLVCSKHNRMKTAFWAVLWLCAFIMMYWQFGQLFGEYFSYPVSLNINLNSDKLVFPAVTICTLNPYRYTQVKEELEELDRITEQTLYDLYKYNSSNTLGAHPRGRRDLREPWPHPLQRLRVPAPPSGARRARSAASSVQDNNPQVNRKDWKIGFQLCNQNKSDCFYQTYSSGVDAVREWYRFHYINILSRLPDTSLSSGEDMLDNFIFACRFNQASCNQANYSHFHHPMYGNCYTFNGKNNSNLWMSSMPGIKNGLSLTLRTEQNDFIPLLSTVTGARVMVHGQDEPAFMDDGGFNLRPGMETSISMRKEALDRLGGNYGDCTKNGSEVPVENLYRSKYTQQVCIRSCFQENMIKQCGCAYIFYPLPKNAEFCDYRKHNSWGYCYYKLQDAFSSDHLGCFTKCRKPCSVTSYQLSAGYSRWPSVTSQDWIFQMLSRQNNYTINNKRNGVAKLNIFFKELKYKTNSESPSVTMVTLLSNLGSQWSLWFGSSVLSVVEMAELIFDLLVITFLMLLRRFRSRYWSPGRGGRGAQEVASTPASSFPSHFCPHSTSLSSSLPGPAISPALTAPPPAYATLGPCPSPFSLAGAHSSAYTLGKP
T1 sequence (Q95165 1-641): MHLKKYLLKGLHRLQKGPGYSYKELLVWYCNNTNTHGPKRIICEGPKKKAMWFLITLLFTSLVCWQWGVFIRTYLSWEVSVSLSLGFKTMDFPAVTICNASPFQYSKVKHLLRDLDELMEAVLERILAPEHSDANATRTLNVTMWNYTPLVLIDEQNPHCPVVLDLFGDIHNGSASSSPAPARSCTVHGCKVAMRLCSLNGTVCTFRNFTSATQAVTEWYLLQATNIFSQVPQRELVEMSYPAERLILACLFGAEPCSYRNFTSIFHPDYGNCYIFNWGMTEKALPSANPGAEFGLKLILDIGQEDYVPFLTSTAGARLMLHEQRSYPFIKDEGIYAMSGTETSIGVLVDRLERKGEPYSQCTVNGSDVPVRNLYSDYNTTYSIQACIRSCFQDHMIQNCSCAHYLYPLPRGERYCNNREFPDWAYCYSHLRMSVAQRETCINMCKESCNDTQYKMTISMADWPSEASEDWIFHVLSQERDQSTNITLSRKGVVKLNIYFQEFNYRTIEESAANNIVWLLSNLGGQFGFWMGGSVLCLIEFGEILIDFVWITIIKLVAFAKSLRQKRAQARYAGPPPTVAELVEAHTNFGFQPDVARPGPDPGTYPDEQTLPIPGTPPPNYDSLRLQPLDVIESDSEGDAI
T1 sequence (A0A8I3MKE6 1-646): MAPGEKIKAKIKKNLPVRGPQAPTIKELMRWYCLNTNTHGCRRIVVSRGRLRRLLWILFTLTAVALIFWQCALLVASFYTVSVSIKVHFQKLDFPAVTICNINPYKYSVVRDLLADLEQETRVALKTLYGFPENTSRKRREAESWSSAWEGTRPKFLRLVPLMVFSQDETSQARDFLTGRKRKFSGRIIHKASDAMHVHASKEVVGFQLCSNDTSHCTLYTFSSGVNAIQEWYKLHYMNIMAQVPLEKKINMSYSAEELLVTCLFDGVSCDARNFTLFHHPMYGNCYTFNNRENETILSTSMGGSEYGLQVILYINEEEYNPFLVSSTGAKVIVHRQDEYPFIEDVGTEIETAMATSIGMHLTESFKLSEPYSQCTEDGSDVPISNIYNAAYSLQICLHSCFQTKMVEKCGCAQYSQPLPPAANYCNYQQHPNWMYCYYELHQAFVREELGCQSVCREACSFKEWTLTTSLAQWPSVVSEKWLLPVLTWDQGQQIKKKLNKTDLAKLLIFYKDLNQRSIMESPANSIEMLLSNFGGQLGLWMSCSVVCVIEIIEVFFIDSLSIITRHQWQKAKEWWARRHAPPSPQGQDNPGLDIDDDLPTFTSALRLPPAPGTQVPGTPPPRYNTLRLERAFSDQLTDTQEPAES
Procedure: One assay used to assess mechanism of action and/or potency of the compounds of the present invention involves the determination of lumenal drug inhibition of airway epithelial sodium currents measured under short circuit current (ISC) using airway epithelial monolayers mounted in Ussing chambers. Cells obtained from freshly excised human, dog, sheep or rodent airways are seeded onto porous 0.4 micron Snapwell™ Inserts (CoStar), cultured at air-liquid interface (ALI) conditions in hormonally defined media, and assayed for sodium transport activity (ISC) while bathed in Krebs Bicarbonate Ringer (KBR) in Using chambers. All test drug additions are to the lumenal bath with half-log dose addition protocols (from 1×10^−11 M to 3×10^−5 M), and the cumulative change in ISC (inhibition) recorded. All drugs are prepared in dimethyl sulfoxide as stock solutions at a concentration of 1×10^−2 M and stored at −20° C. Eight preparations are typically run in parallel; two preparations per run incorporate amiloride and/or benzamil as positive controls. After the maximal concentration (5×10^−5 M) is administered, the lumenal bath is exchanged three times with fresh drug-free KBR solution, and the resultant ISC measured after each wash for approximately 5 minutes in duration. Reversibility is defined as the percent return to the baseline value for sodium current after the third wash. All data from the voltage clamps are collected via a computer interface and analyzed off-line.
Dose-effect relationships for all compounds are considered and analyzed by the Prism 3.0 program. IC50 values, maximal effective concentrations, and reversibility are calculated and compared to amiloride and benzamil as positive controls.
Treatment Protocol (Assessment of Activity at t-4 hours): The following variation of the standard protocol was used to assess the durability of response following a single exposure to vehicle control (distilled water), positive control compounds (amiloride or benzamil), or investigational agents. At time zero, vehicle control (distilled water), positive control (amiloride), or investigational compounds were aerosolized from a 4 ml volume using a Pari LC JetPlus nebulizer to free-breathing animals. The nebulizer was driven by compressed air with a flow of 8 liters per minute. The time to deliver the solution was 10 to 12 minutes. Animals were restrained in an upright position in a specialized body harness for 4 hours. At the end of the 4-hour period animals received a single dose of aerosolized ^99mTc-Human serum albumin (3.1 mg/ml; containing approximately 20 mCi) from a Raindrop Nebulizer. Animals were extubated immediately following delivery of the total dose of radio-tracer. A baseline deposition image was obtained immediately after radio-aerosol administration. Serial images of the lung were obtained at 15-minute intervals during the first 2 hours after administration of the radio-tracer (representing hours 4 through 6 after drug administration) and hourly for the next 2 hours after dosing for a total observation period of 4 hours. A washout period of at least 7 days separated dosing sessions with different experimental agents. Statistics: Data were analyzed using SYSTAT for Windows, version 5. Data were analyzed using a two-way repeated ANOVA (to assess overall effects), followed by a paried t-test to identify differences between specific pairs. Significance was accepted when P was less than or equal to 0.05. […] The compounds can be further tested for potency in canine bronchial epithelia using the in vitro assay described above. The results for the compounds of the present invention are reported as fold-enhancement values relative to amiloride.
Sodium Channel Blocking Activity of Selected Alaphatic Pyrazinoylguanidines.

| SMILES | melting point | Fold Amiloride** (PSA 4022 = 100) [1] | EC50 ([1]; sodium channel blocking activity, short circuit current in airway epithelial monolayers) |
| --- | --- | --- | --- |
| CC(C)(C)OC(=O)N=C(NCCCOCCCNC(=N)NC(=O)c1nc(Cl)c(N)nc1N)NC(=O)OC(C)(C)C | 89 to 93 °C |  |  |
| N=C(NCCCCCCCCN)NC(=O)c1nc(Cl)c(N)nc1N [compound 19336] |  | 12 ± 3 (n = 3) |  |
| N=C(N)NCCCCCCCCCCCNC(=N)NC(=O)c1nc(Cl)c(N)nc1N [compound 23991] |  | 20 ± 12 (n = 4) |  |
| N=C(NCCCCCCCCCCCCN)NC(=O)c1nc(Cl)c(N)nc1N [compound 23609] |  | 66 ± 36 (n = 4) |  |
| N=C(N)NCCCCCCCCCNC(=N)NC(=O)c1nc(Cl)c(N)nc1N [compound 19006] |  | 11 ± 2 (n = 3) |  |
| CC(C)(C)OC(=O)NCCCCCCCCCCCCNC(=N)NC(=O)c1nc(Cl)c(N)nc1N [compound 23776] |  | 7 (n = 1) |  |
| N=C(N)NCCCCCCCNC(=N)NC(=O)c1nc(Cl)c(N)nc1N [compound 19155] |  | 8 ± 7 (n = 3) |  |
| N=C(N)NCCCCCCCCCCNC(=N)NC(=O)c1nc(Cl)c(N)nc1N [compound 23608] |  | 41 ± 29 (n = 2) |  |
| N=C(NCCCCCCCCCN)NC(=O)c1nc(Cl)c(N)nc1N [compound 19335] |  | 19 ± 7 (n = 4) | 36 ± 7 nM |
| N=C(NCCCCCCCCCCCN)NC(=O)c1nc(Cl)c(N)nc1N [compound 23682] |  | 51 ± 15 (n = 3) |  |
| N=C(N)NCCCCCCCCNC(=N)NC(=O)c1nc(Cl)c(N)nc1N [compound 19604] |  | 63 ± 61 (n = 4) |  |
| CC(C)(C)OC(=O)NCCCCCCCCCNC(=N)NC(=O)c1nc(Cl)c(N)nc1N [compound 19484] |  | 12 (n = 1) |  |
| N=C(NCCCCCCCCCCN)NC(=O)c1nc(Cl)c(N)nc1N [compound 19487] |  | 37 ± 1 (n = 4) |  |
| N=C(NCCCCCCCN)NC(=O)c1nc(Cl)c(N)nc1N [compound 18705] |  | 8 ± 2 (n = 4) |  |
| CC(C)(C)OC(=O)NCCCOCCCNC(=N)NC(=O)c1nc(Cl)c(N)nc1N [compound 19333] |  | 7 ± 2 (n = 4) |  |
| N=C(NCCCCCCN)NC(=O)c1nc(Cl)c(N)nc1N [compound 18706] |  | 4 ± 1 (n = 4) |  |
| CC(C)(C)OC(=O)NCCCCCCCCNC(=N)NC(=O)c1nc(Cl)c(N)nc1N [compound 19156] |  | 18 ± 2 (n = 2) |  |
| N=C(N)NCCCCCCCCCCCCNC(=N)NC(=O)c1nc(Cl)c(N)nc1N [compound 23683] |  | 68 ± 48 (n = 6) |  |
